Measured values taken from article PMC12040169 (PLOS Biology, 2025).

test: in vitro; conditions: human, hela cells, % viability

| Compound | viability at 28.5 h, 10 µM [%] |
| --- | --- |
| CC(Oc1ccc(S(=O)(=O)N2CCN(C)CC2)cc1)C(=O)NC1CCCCC1 (centres unmarked) [CBK269943] | 97.9 |
| CC(C)(C)c1ccc(COn2c(=O)c(-c3ccccc3Cl)[n+]([O-])c3ccccc32)cc1 [CBK267494] | 101 |
| Cc1nc2ccc(NC(=O)CC3CCN(C(=O)CC4CCCCC4)CC3)cc2[nH]1 [CBK285967] | 94.6 |
| CN1C(=O)C2(CC(=O)N(CCC3CCCCC3)C2=O)c2ccccc21 (centres unmarked) [CBK075461] | 109 |
| O=C(NNC(=S)NCCc1ccccc1)c1ccc(Br)o1 [CBK266818] | 96.3 |
| O=C(NC(=S)Nc1ccc(S(=O)(=O)Nc2nccs2)cc1)C12CC3CC(CC(C3)C1)C2 [CBK261067] | 101 |
| Cc1ccc(NC(=O)CN2C(=O)S/C(=C\c3cc(C)n(-c4cccc(C(=O)O)c4)c3C)C2=O)cc1 [CBK264725] | 89.9 |
| Cc1ccc(S(=O)(=O)c2nc(NCCN3CCOCC3)sc2Cl)cc1 [CBK269615] | 79.7 |
| Cc1ccc(S(=O)(=O)N2CC(=O)NC2=S)cc1 [CBK023293] | 94.5 |
| O=C(N[C@H]1CO[C@H]2[C@@H]1OC[C@@H]2Nc1nccc(-c2cccs2)n1)c1cccs1 [CBK289518] | 106 |
| CCCC/C=C/c1cnc2[nH]c(=O)n([C@H](CO)C(C)C)c2n1 [CBK064970] | 95 |
| CC(C)(C)CC(=O)NS(=O)(=O)c1cccc(-c2nnco2)c1 [CBK305258] | 78 |
| NCCc1c[nH]c2ccc(OCC(=O)O)cc12 [CBK265853C] | 86.2 |
| CC(NC(=O)/C(=C\c1ccc(Cl)cc1)NC(=O)c1ccco1)C(=O)O (centres unmarked) [CBK263617] | 93 |
| Cc1c(NC2CCN(c3ccc(C#N)cc3)C2=O)cnn1C1CCCC1 (centres unmarked) [CBK304735] | 113 |
| c1ccc(COc2nccnc2-c2ccccc2)cc1 [CBK106686] | 92.2 |
| O=C(C1CCC1)N1CCN(c2ccccn2)CC1 [CBK026058] | 107 |
| Cc1oc(-c2ccc(Cl)cc2)cc1C(=O)CC#N [CBK047603] | 85.4 |
| O=C(O)C(Cc1ccccc1)N1C(=O)/C(=C/c2ccc([N+](=O)[O-])cc2)SC1=S (centres unmarked) [CBK263108] | 84.3 |
| O=C(NCCc1ccc(Cl)cc1)C1CCN(C(=O)c2ccc3nsnc3c2)C1 (centres unmarked) [CBK285553] | 95.2 |
| COc1cc(CNc2nccnc2-c2ccc(F)cc2)cc(OC)c1OC [CBK037328] | 90.3 |
| COc1ccc(-c2csc(NC(=O)c3ccccc3-c3ccccc3C(=O)O)n2)cc1 [CBK296076] | 88.6 |

| Compound | viability at 28.5 h, 10 µM [%] |
| --- | --- |
| CCOc1ccc(S(=O)(=O)Nc2ccc(C(=O)O)cc2)cc1 [CBK287171] | 89.9 |
| CN(C)C(=O)c1cccc(S(=O)(=O)NCC2CCCO2)c1 (centres unmarked) [CBK304867] | 93.2 |
| OCc1cccc(-c2cc(NCc3ccccc3)n3nccc3n2)c1 [CBK037113] | 95.6 |
| CS(=O)(=O)Nc1nccnc1N1CCN(c2ccccc2)CC1 [CBK048688] | 91.8 |
| CC(C)N(Cc1nc(-c2ccccc2)no1)C(=O)CCc1ccccc1 [CBK269867] | 109 |
| CC1=NN(C(=O)NS(=O)(=O)c2ccccc2Cl)C(C)(C)C1 [CBK018947] | 120 |
| Fc1ccc(-c2cncc(NCc3ccncc3)n2)cc1Cl [CBK065343] | 94.7 |
| O=C(/C=C/c1ccccc1[N+](=O)[O-])NCCN1CCOCC1 [CBK265596] | 97.8 |
| Cc1nc(C2CCCN(C(=O)c3ccnn3C)C2)c2sccn12 (centres unmarked) [CBK285235] | 87.2 |
| Cc1c(C(=O)N(C)Cc2csc3ccccc23)nnn1C1CCNCC1 [CBK304103] | 84.6 |
| O=C(NCCc1nc2ccccc2[nH]1)Nc1ccccc1 [CBK261803] | 103 |
| Cn1c(=O)c2c(nc(CN3CCC(Cc4ccccc4)CC3)n2CCN2CCOCC2)n(C)c1=O [CBK269380] | 100 |
| NS(=O)(=O)c1ccc(NCc2ccccc2OCc2ccccc2F)cc1 [CBK268935] | 91.8 |
| Cc1ccc(S(=O)(=O)N2CCN(CC(O)COc3ccc4ccccc4c3Cl)CC2)c(C)c1 (centres unmarked) [CBK266563] | 83 |
| CN1CCN(c2cccc(-c3cc4ccccc4s3)n2)CC1 [CBK037019] | 102 |
| Cc1nn(CC(=O)N2CCCC2)c(=O)c2cc3ccsc3n12 [CBK284057] | 88.7 |
| Cc1ccc(S(=O)(=O)NCCSc2ccc(Cl)cc2)cc1[N+](=O)[O-] [CBK264126] | 96.8 |
| Cn1nccc1C(O)c1cc2n(n1)CCCN(C(=O)Cc1cccs1)C2 (centres unmarked) [CBK306930] | 104 |
| CC(NC(=O)c1cn(C)c(=O)c2ccccc12)c1ccccn1 (centres unmarked) [CBK281886] | 92.1 |
| N#Cc1cccc(CN2CCCC3(CCN(C(=O)Cc4c[nH]c5ccccc45)C3)C2)c1 (centres unmarked) [CBK132032] | 103 |
| O=C1COc2ccccc2C/C=C/CC2(CCN(C(=O)Cc3cccnc3)CC2)C(=O)NCCN1 [CBK292153] | 110 |
| O=C(Nc1ccc(-c2ccc(F)cc2)cc1)c1ccc(N2C(=O)CCC2=O)cc1 [CBK285683] | 98 |

| Compound | viability at 28.5 h, 10 µM [%] |
| --- | --- |
| CCN1CC(C(=O)N2CCCC(COc3ccc(F)cc3)C2)CC1=O (centres unmarked) [CBK282028] | 85.3 |
| CC1=C(CCN2CCCC(CO)C2)C(C)(C)CCC1 (centres unmarked) [CBK020827] | 88.2 |
| CCCCc1c(Cl)nc(C#N)c2c1CCCC2 [CBK020252] | 98.9 |
| CN1C(=O)CC2(C1=O)C(=O)N(Cc1ccccc1)c1ccc(F)cc12 (centres unmarked) [CBK075163] | 90.5 |
| Nc1ncc(-c2ccc(N3CCOCC3)cc2)nc1N1CCN(CCO)CC1 [CBK063394] | 95.8 |
| CCNc1cncc(-c2ccc(F)c(Cl)c2)n1 [CBK065322] | 101 |
| O=C(O)c1ccc(CCN2CCCC2)nc1 [CBK034220] | 107 |
| COc1cc(CNC(=O)N(CCC#N)C2CCCCC2)cc(OC)c1OC [CBK156359] | 98.1 |
| O=C(c1ccncc1)N1CCCCC1c1nc2ccccc2[nH]1 (centres unmarked) [CBK281641] | 87.2 |
| Cc1c(S(=O)(=O)Nc2nnn[nH]2)sc2ccc(Cl)cc12 [CBK062392] | 91.7 |
| Cc1cc2nc(-c3cc(NC(=O)c4cccc([N+](=O)[O-])c4)ccc3O)oc2cc1C [CBK262855] | 103 |
| COc1cc(Nc2cncc(-c3ccccc3CO)n2)cc(OC)c1OC [CBK037160] | 95.4 |
| C/N=c1\cccccc1NC [CBK022788] | 110 |
| O=C(O)CSc1ncnc2ccccc12 [CBK262069] | 94.4 |
| COc1cc(CNc2cncc(-c3cccc(C(=O)NCCO)c3)n2)cc(OC)c1OC [CBK065421] | 98.5 |
| O=C1CCCN1CCCNc1nccnc1-c1ccncc1 [CBK036832] | 106 |
| COCCn1c(=O)c2c(nc3oc(C(C)(C)C)cn32)n(C)c1=O [CBK307566] | 96.7 |
| c1cncc(COc2nccnc2OC2CCN(CCOc3cccnc3)CC2)c1 [CBK083181] | 92.1 |
| COc1cccc(CNc2cccc(C(=O)O)c2)c1OCc1ccc(Cl)cc1Cl [CBK074424] | 91.3 |
| CC(C)C(NC(=O)c1cc2c([nH]c1=O)CCC2)c1ccc(F)cc1 (centres unmarked) [CBK281662] | 93.4 |
| CCOC(=O)CN1CCC(Oc2nccnc2OCC2COc3ccccc3O2)CC1 (centres unmarked) [CBK082989T] | 96.6 |
| Cc1ccccc1C(=O)Nc1cccc(NC(=O)c2nc[nH]n2)c1 [CBK267108] | 86.6 |

| Compound | viability at 28.5 h, 10 µM [%] |
| --- | --- |
| Cc1cc(C(=O)Nc2cc(F)c(N3CCCC3)c(F)c2)c(C)n1C1CC1 [CBK306226] | 102 |
| O=C(c1c(NS(=O)(=O)c2ccc3ccccc3c2)sc2c1CCCC2)N1CCOCC1 [CBK028636] | 94.4 |
| CC(C)CNC(=O)c1cc(C2CN(Cc3c[nH]nc3C(C)(C)C)CCO2)nc2ccccc12 (centres unmarked) [CBK285925] | 104 |
| Cc1cc(S(=O)(=O)N2CCCC2)ccc1OCC(=O)NCc1ccccn1 [CBK270027] | 96 |
| O=C1CC(NCc2ccccc2)C(=O)N1c1ccc(N2C(=O)CC(NCc3ccccc3)C2=O)cc1 (centres unmarked) [CBK263963] | 88.6 |
| O=C(NCc1c(F)cccc1F)c1ccc2nc[nH]c2c1 [CBK153315] | 83 |
| COc1ccc2c(c1)OC1(CCN(C(=O)c3ccc(C(C)=O)cc3)CC1)CC2=O [CBK156457] | 94.2 |
| C=CCNC(=O)C1CCN(c2nc3ccccc3n2C)CC1 [CBK283955] | 92 |
| COc1ccc(CC(=O)NCCc2nnc3ccccn23)cc1 [CBK304613] | 74.7 |
| O=C(CN1C(=O)CCC1=O)Nc1nc2ccccc2s1 [CBK287345] | 97.7 |
| Cc1cc2ccnc(Cl)c2n1CC1(O)CC2CCC(C1)N2 (centres unmarked) [CBK284980] | 95 |
| CCOc1ccc(CC(=O)Nc2ncccc2OCCCC#N)cc1 [CBK304062] | 90.3 |
| O=C(Cn1cccc2cc(C3CCNCC3)nc1-2)N1CCCCCC1 [CBK284679] | 95.6 |
| O=C(O)CCN1CCN(c2ccc(F)cc2)CC1 [CBK287262] | 79.6 |
| CCN1C(=O)c2cccc3c(S(=O)(=O)Nc4cccc(C(=O)O)c4)ccc1c23 [CBK299838] | 97.5 |
| COC(=O)c1ccc(N2CCN(Cc3nc(C)c(C)o3)C(C)C2)cc1 (centres unmarked) [CBK304903] | 105 |
| CCCCc1nnc(CC(C)C)o1 [CBK008679] | 106 |
| O=C(NC(Cc1c[nH]c2ccccc12)C(=O)NC1CCCCC1)OCc1ccccc1 (centres unmarked) [CBK085144] | 89 |
| CC(=O)N1CCCC(c2cc3cccnc3n2CC(=O)N(C)C)C1 (centres unmarked) [CBK285177] | 106 |
| CC(C)Nc1cc(SCCc2ccccn2)ncn1 [CBK105617] | 97.8 |
| Cn1cnnc1SC1c2cccc3cccc(c23)C1NS(=O)(=O)c1ccc(Cl)cc1 (centres unmarked) [CBK264707] | 98.2 |
| CCC(CN1CCN(C)CC1)NC(=O)C1(c2ccc(F)cc2)CC1 (centres unmarked) [CBK282785] | 104 |

same assay, conditions: human, hela cells, % viability, bulk resorufin, single well

| Compound | viability at 28.5 h, 10 µM [%] |
| --- | --- |
| CCC(=O)c1c(O)n(-c2ccccc2)c(=O)[nH]c1=O [CBK287862] | 96.8 |
